According to patent US20070293580A1, “Methods for Buccal, Lingual or Sublingual Dosing Regimens of Epinephrine for the Treatment of Allergic Emergencies” (priority 2006, published 2007):

Assays:
symptoms of anaphylaxis [1] = conditions: 40 mg
Protocol: (§1) A patient experiencing an allergic emergency initiates treatment at the onset of shortness of breath by self administering 40 mg of epinephrine free base in a buccal dosage form.
as §1

symptoms of anaphylaxis [2] = conditions: 30 mg, then 45 mg at approximately 5 minute intervals without amelioration, within about five minutes after the third dose
Protocol: A patient experiencing an allergic emergency initiates treatment at the onset of shortness of breath by self administering 30 mg of epinephrine free base in a lingual dosage form. After approximately 5 minutes pass without amelioration of the symptoms of anaphylaxis, the patient self administers a second lingual dosage form comprising 30 mg of epinephrine free base. After another approximately 5 minutes pass without amelioration of the symptoms of anaphylaxis, the patient self administers a third lingual dosage form comprising 45 mg of epinephrine free base.

CNC[C@H](O)c1ccc(O)c(O)c1 [epinephrine free base, epinephrine]
symptoms of anaphylaxis are relieved: patient's symptoms of anaphylaxis after the third buccal dose (symptoms of anaphylaxis [1]; then 60 mg at approximately 5 minute intervals without amelioration, within about five minutes after the third dose) | patient's symptoms of anaphylaxis after the second buccal dose (symptoms of anaphylaxis [1]; then second 40 mg after approximately 5 minutes without amelioration, within about five minutes after the second dose) | patient's symptoms of anaphylaxis after the third lingual dose (symptoms of anaphylaxis [2])
